System: primordial germ cells in gonads from female mouse fetuses at 12.5 dpc
Experiment: In vitro organ culture of gonad (secondary follicle formation)
Format: cell-based
Settings: (vii) FBS/1 μM MPP group, 1 μM day 5-11
Procedure: For the medium of the organ culture, the basal medium supplemented with FBS (Gibco, Thermo Fisher Scientific Inc.), SPS (SAGE In vitro Fertilization), the estrogen receptor antagonist, 7α, 17β-[9-([4,4,5,5,5-pentafluoropentyl]sulfinyl)nonyl]estra-1,3,5(10)-triene-3,17-diol; ICI 182,780 (ICI; Tocris Bioscience), 4-hydroxytamoxifen (Sigma-Aldrich), and MPP (Methylpiperidino pyrazole; Cayman Chemical) were added at the indicated concentrations for each experimental group below. The α-MEM medium (Gibco, Thermo Fisher Scientific Inc.) supplemented with 1.5 mM 2-O-α-d glucopyranosyl-1-ascorbic acid (Tokyo Chemical Industry), 10 units/mL penicillin, and 10 μg/mL streptomycin (Sigma-Aldrich) was used as a basal medium (referred to the basal medium hereafter as α-MEM).
ICI 182,780 and 4-hydroxytamoxifen was prepared as follows. ICI 182,780 and 4-hydroxytamoxifen was diluted to 100 mM using DMSO, and cryopreserved stock was prepared. MPP was diluted to 10 mM using DMSO, and cryopreserved stock was prepared. 1 mM solutions of ICI 182, 780 and 4-hydroxytamoxifen were prepared by diluting the 100 mM stocks 100-fold with DMSO just before use and were added to the medium at the indicated final concentrations for each experimental group. MPP was added to the medium at 1 μM as the final concentration just before use.
The gonads for the organ culture were collected with mesonephros or without mesonephros from female mouse fetuses at 12.5 dpc (FIG. 1a). 2.2 ml of the medium was added to each 6-well culture plate used for the organ culture. Transwell®-COL membrane (3.0-μm pore size, 24-mm diameter; Corning) was put on each well of the 6-well culture plate. The gonads were transferred on the membrane and were cultured for 17 days at 37° C. under 5% CO2 and 95% air. Approximately half of the medium in each well was replaced with fresh medium every other day. In the example in which the gonad was cultured with mesonephros, mesonephros was removed from the gonad at day 7 of the organ culture.
The in vitro organ culture of the gonads was performed according to the following conditions described below. The gonads were cultured for total 17 days in each conditions below (FIG. 2):
(i) culture for the complete 17 days period in 10% FBS containing α-MEM (α-MEM+FBS; FBS group);
(ii) culture for the complete 17 days period in 10% SPS containing α-MEM (α-MEM+SPS; SPS group);
(iii) culture for the complete 17 days period in 10% KSR containing α-MEM (α-MEM+KSR; KSR group);
(iv) culture in 10% FBS containing α-MEM for 4 days with a shift to 10% SPS containing α-MEM for 6 days from day 5 and a shift to 10% FBS containing α-MEM until day 17 from day 11 (αMEM+FBS/SPS; FBS/SPS group);
(v) culture in 10% FBS containing α-MEM for 4 days with a shift to 10% FBS containing α-MEM with the addition of 10 nM, 100 nM, 1 μM, 5 μM, or 10 μM (final concentration) ICI for 6 days from day 5 and a shift to 10% FBS containing α-MEM until day […] (αMEM+FBS/10 nM ICI; FBS/10 nM ICI group, αMEM+FBS/100 nM ICI; FBS/100 nM ICI group, αMEM+FBS/1 μM ICI; FBS/1 μM ICI group, αMEM+FBS/5 μM ICI; FBS/5 μM ICI group, or αMEM+FBS/10 μM ICI; FBS/10 μM ICI group);
(vi) culture in 10% FBS containing α-MEM for 4 days with a shift to 10% FBS containing α-MEM with the addition of 1 μM (final concentration) 4-hydroxytamoxifen for 6 days from day 5 and a shift to 10% FBS containing α-MEM until day 17 from day 11 (αMEM+FBS/1 μM Tamoxifen; FBS/1 μM Tamoxifen group);
(vii) culture in 10% FBS containing α-MEM for 4 days with a shift to 10% FBS containing α-MEM with the addition of 1 μM (final concentration) MPP for 6 days from day 5 and a shift to 10% FBS containing α-MEM until day 17 from day 11 (αMEM+FBS/1 μM MPP; FBS/1 μM MPP group).
Vitrification and warming were conducted as follows by reference to Wang, X. et al., “Successful in vitro culture of pre-antral follicles derived from vitrified murine ovarian tissue: oocyte maturation, fertilization, and live births.” Reproduction 141, 183-191 (2011). […]

Cc1c(-c2ccc(O)cc2)nn(-c2ccc(O)cc2)c1-c1ccc(OCCN2CCCCC2)cc1 [MPP, 4-[1-(4-hydroxyphenyl)-4-methyl-5-[4-[2-(1-piperidinyl)ethoxy]phenyl]-1H-pyrazol-3-yl]-phenol]
secondary follicles collected from one ovary: 15

From patent US11773368B2, “Culture method for differentiating primordial germ cells into functionally mature oocytes” (TOKYO UNIVERSITY OF AGRICULTURE, priority 2015, dated 2023)
